{
  "source": "patent US6699681B2",
  "about": "“Endothelin converting enzymes and the amyloid β peptide” (Mayo Foundation for Medical Education and Research, priority 2000, dated 2004)",
  "key": {"SolECE-1": {"target": "T1, SolECE-1 (Homo sapiens, UniProt P42892)", "T1 construct": "a recombinant soluble form of ECE was generated (SolECE-1); made in house", "T1 sequence (P42892 90-770 limits assumed)": "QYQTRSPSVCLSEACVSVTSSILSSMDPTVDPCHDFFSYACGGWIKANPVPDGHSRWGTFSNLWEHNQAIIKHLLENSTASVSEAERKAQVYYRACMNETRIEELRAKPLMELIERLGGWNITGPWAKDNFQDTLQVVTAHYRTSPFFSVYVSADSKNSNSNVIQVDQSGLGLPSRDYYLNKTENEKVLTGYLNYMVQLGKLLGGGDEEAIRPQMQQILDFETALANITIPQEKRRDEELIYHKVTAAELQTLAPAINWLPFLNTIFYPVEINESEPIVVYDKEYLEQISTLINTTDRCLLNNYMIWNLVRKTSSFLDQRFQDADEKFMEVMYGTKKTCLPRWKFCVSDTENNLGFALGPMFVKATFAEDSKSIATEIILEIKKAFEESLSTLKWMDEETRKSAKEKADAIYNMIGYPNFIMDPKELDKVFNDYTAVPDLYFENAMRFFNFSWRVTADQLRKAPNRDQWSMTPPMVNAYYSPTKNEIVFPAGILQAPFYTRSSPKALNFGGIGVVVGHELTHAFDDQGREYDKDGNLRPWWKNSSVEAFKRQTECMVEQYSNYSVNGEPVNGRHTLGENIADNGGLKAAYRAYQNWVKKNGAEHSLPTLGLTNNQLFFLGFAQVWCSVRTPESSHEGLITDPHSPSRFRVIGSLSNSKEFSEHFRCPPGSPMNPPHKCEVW", "assay": "Inhibition of Aβ degradation by SolECE-1, sandwich ELISA", "format": "biochemical", "settings": "inhibitor pre-incubated 15 min; phosphoramidon 150 μM; 24 hrs at 37° C.", "experimental": "SolECE-1 (approximately 0.2 μM) was pre-incubated for 15 min at room temperature with the ECE inhibitors PD069185 (synthesized according to published methods (Ahn et al., 1998, Biochem. Biophys. Res. Comm., 243:184-190) by the Mayo Clinic Organic Chemistry Core Facility, Jacksonville, Fla.) or phosphoramidon (150 μM), or an equal volume of vehicle (DMSO or PBS, respectively) prior to incubation with synthetic Aβ40 or Aβ42 (0.01 μM) in 50 mM MES (pH 6.5) containing 0.01% C12E10, 1 mM PMSF, 100 μM leupeptin, and 20 μM pepstatin. As a control, Aβ was incubated with Ni-NTA purified proteins from non-transfected CHO cells, or in reaction buffer alone. Following incubation for 24 hrs at 37° C., the reactions were stopped by the addition of 5 mM EDTA. Aβ concentration was then analyzed using a highly specific sandwich ELISA that captures Aβ via binding of antibody BAN-50 to the N-terminus, and detects only full-length Aβ peptides ending at residue 40 (using antibody BA-27) or 42 (using antibody BC-05). Thus, Aβ that has been further hydrolyzed will not be detected using this assay."}, "[1]": {"system": "Aβ concentration in plasma", "assay": "Treatment of guinea pigs with phosphoramidon, plasma Aβ by sandwich ELISA", "format": "in vivo, guinea pig", "settings": "guinea pigs treated intravenously", "method": "Animal experiments were conducted within the United States Department of Agriculture (USDA) and the National Institute of Health (NIH) guidelines for animal use and care. To prevent clotting and to facilitate the collection of plasma, each animal was given 100 USP units/kg heparin sodium salt (Sigma, St. Louis, Mo.) administered intraperitoneally (IP) prior to experimentation. Animals were anesthetized with a single IP injection of 0.9 mg/kg acepromazine maleate (Fermenta, Kansas City, Mo.) combined with 90 mg/kg Ketaset (Fort Dodge Laboratories, Fort Dodge, Iowa). […] During the entire operation, the animal's temperature was periodically monitored and anesthesia maintained by further intraperitoneal injections as necessary. […] Data was obtained from at least 2 animals, with the Aβ in each sample measured at least twice.\nHuman and guinea pig Aβ40 or Aβ42 was measured in plasma by sandwich ELISA as previously described (Suzuki et al., 1994, Science, 264:1336-1340) using the BAN-50/BA-27 or BAN-50/BC-05 antibody systems, respectively (Takeda; Japan). Hamster Aβ40- or Aβ42-derived from CHO cells was measured using the BNT-77/BA-27 or BNT-77/BC-05 antibody systems, respectively. Aβ concentration in samples was determined by comparison to synthetic Aβ40 or Aβ42 standards (Bachem, Switzerland). […]"}},
  "data": [
    {"smiles": "CC(C)C[C@H](NP(=O)(O)O[C@@H]1O[C@@H](C)[C@H](O)[C@@H](O)[C@H]1O)C(=O)N[C@@H](Cc1c[nH]c2ccccc12)C(=O)O", "note": "[phosphoramidon]", "values": [
      {"measurement": "block of the SolECE-1-induced reduction of Aβ40 and Aβ42", "setting": "SolECE-1", "result": "completely blocked"},
      {"measurement": "Aβ concentration in the plasma", "setting": "[1]", "result": "dose-dependent, rapid increase"}
    ]}
  ]
}
